This is an account of results in patent US8987195B2 (priority 2012, dated 2015).

SMILES strings stand for the structures. Where two headings read alike, the source gives them in different places.

The target in test [1] is HCV NS3/4A protease genotype 1b (Hepatitis C virus genotype 1b, UniProt P26663). The experiment in a line: HCV NS3/4A protease time-resolved fluorescence (TRF) assay, Ki against genotype 1b. It counts as biochemical. In outline:
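Enzyme was pre-incubated 30 min with inhibitor in HEPES pH 7.5 buffer (150 mM NaCl, 15% glycerol, 10 mM DTT). Reaction ran 2.5 h at room temperature with 25 nM europium TRF peptide substrate, read at ex 340/em 615 nm. Enzyme levels: 0.2 nM (1b), 0.4 nM (A156T), 0.025 nM (3a). Ki came from four-parameter IC50 via IC50=Ki(1+[S]/KM).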

For test [2], the system named is HCV genotype 1b replicon. The experiment in a line: HCV replicon assay, genotype 1b replicon EC50. It counts as cell-based, Hepatitis C virus. To be noted: read-out: EC50 [gt-1b]. The gist of the method: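 Assay format: compound titration on stable replicon cells, no G418 during treatment, 24 to 48 hours. Lysates were assayed for replicon RNA (hybridization/protection or TaqMan) or luciferase; EC50 fitted to four parameters against DMSO.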
On the technique in general: A replicon is a self-replicating genome or part of one, used to study replication in cells.

Setting [3] is: IC50 [gt-1b] (nM), NS3/4A genotype 1b, enzyme 0.2 nM.
Setting [4] is: Hepatitis C virus, genotype 1b replicon.
The mark [5] stands for this setting: IC50 [gt-1b] (nM), NS3/4A genotype 1b, enzyme 0.2 nM, K+ salt.
Setting [6] is: Hepatitis C virus, genotype 1b replicon, K+ salt.
The mark [7] stands for this setting: IC50 [gt-1b], NS3/4A protease TRF assay, genotype 1b enzyme 0.2 nM.
Setting [8] is: Hepatitis C virus, HCV replicon, genotype 1b.

In test [1] (setting [3]), `COc1ccc2nc(C(C)C)c3c(c2c1)CC[C@]1(C[C@H]2C(=O)N[C@]4(C(=O)NS(=O)(=O)C5(C)CC5)C[C@H]4/C=C\CCCCC[C@H](NC(=O)OC(C)(C)C(F)(F)F)C(=O)N2C1)O3` [Example 295, 1,1,1-trifluoro-2-methylpropan-2-yl [(2R,6S,12Z,13aS,14aR,16aS)-9′-methoxy-14a-{[(1-methylcyclopropyl)sulfonyl]carbamoyl}-5,16-dioxo-5′-(propan-2-yl)-1,1′,2′,5,6,7,8,9,10,11,13a,14,14a,15,16,16a-hexadecahydrospiro[cyclopropa[e]pyrrolo[1,2-a][1,4]diazacyclopentadecine-2,3′-pyrano[2,3-c]quinolin]-6-yl]carbamate] returned an IC50 of 0.024 nM. For the same compound, the EC50 in test [2] (setting [4]) was 2.36 nM.

As for `Cc1nc2ccc(OC(F)(F)F)cc2c2c1O[C@]1(CC2)C[C@H]2C(=O)N[C@]3(C(=O)NS(=O)(=O)C4(C)CC4)C[C@H]3/C=C\CCCCC[C@H](NC(=O)OC(C)(C)CCS(C)(=O)=O)C(=O)N2C1` [Example 226, 2-methyl-4-(methylsulfonyl)butan-2-yl [(2R,6S,12Z,13aS,14aR,16aS)-5′-methyl-14a-{[(1-methylcyclopropyl)sulfonyl]carbamoyl}-5,16-dioxo-9′-(trifluoromethoxy)-1,1′,2′,5,6,7,8,9,10,11,13a,14,14a,15,16,16a-hexadecahydrospiro[cyclopropa[e]pyrrolo[1,2-a][1,4]diazacyclopentadecine-2,3′-pyrano[2,3-c]quinolin]-6-yl]carbamate], the half-inhibitory concentration (IC50) in test [1] (setting [5]) turned out to be 0.021 nM. Further, the EC50 in test [2] (setting [6]) is 18 nM.

For `COc1ccc2nc(C)c3c(c2c1)C(F)(F)C[C@]1(C[C@H]2C(=O)N[C@]4(C(=O)NS(=O)(=O)C5(C)CC5)C[C@H]4/C=C\CCCCC[C@H](NC(=O)O[C@@H](C)C(C)C)C(=O)N2C1)O3` [Example 264, (2S)-3-methylbutan-2-yl [(2S,6S,12Z,13aS,14aR,16aS)-1′,1′-difluoro-9′-methoxy-5′-methyl-14a-{[(1-methylcyclopropyl)sulfonyl]carbamoyl}-5,16-dioxo-1,1′,2′,5,6,7,8,9,10,11,13a,14,14a,15,16,16a-hexadecahydrospiro[cyclopropa[e]pyrrolo[1,2-a][1,4]diazacyclopentadecine-2,3′-pyrano[2,3-c]quinolin]-6-yl]carbamate], the IC50 in test [1] (setting [5]) amounted to 0.013 nM. Besides, the EC50 in test [2] (setting [6]) worked out at 4.3 nM.

Regarding `COc1ccc2nc(C(C)C)c3c(c2c1)C(F)(F)C[C@]1(C[C@H]2C(=O)N[C@]4(C(=O)NS(=O)(=O)C5(C)CC5)C[C@H]4/C=C\CCCCC[C@H](NC(=O)OC(C)(C)CCS(C)(=O)=O)C(=O)N2C1)O3` [Example 245, 2-methyl-4-(methylsulfonyl)butan-2-yl [(2S,6S,12Z,13aS,14aR,16aS)-1′,1′-difluoro-9′-methoxy-14a-{[(1-methylcyclopropyl)sulfonyl]carbamoyl}-5,16-dioxo-5′-(propan-2-yl)-1,1′,2′,5,6,7,8,9,10,11,13a,14,14a,15,16,16a-hexadecahydrospiro[cyclopropa[e]pyrrolo[1,2-a][1,4]diazacyclopentadecine-2,3′-pyrano[2,3-c]quinolin]-6-yl]carbamate], the IC50 in test [1] (setting [5]) amounted to 0.025 nM. In test [2] (setting [6]), the EC50 is 13.4 nM.

`CCc1nc2ccc(OCCCOC)cc2c2c1O[C@]1(CC2)C[C@H]2C(=O)N[C@]3(C(=O)NS(=O)(=O)C4(C)CC4)C[C@H]3/C=C\CCCCC[C@H](NC(=O)OC(C)(C)C)C(=O)N2C1` [Example 479, tert-butyl [(2R,6S,12Z,13aS,14aR,16aS)-5′-ethyl-9′-(3-methoxypropoxy)-14a-{[(1-methylcyclopropyl)sulfonyl]carbamoyl}-5,16-dioxo-1,1′,2′,5,6,7,8,9,10,11,13a,14,14a,15,16,16a-hexadecahydrospiro[cyclopropa[e]pyrrolo[1,2-a][1,4]diazacyclopentadecine-2,3′-pyrano[2,3-c]quinolin]-6-yl]carbamate]: the IC50 in test [1] (setting [7]) was 0.005 nM. The EC50 in test [2] (setting [8]) is 1.05 nM.

For `COc1ccc2nc(C(C)C)c3c(c2c1)CC[C@]1(C[C@H]2C(=O)N[C@]4(C(=O)NS(=O)(=O)C5(C)CC5)C[C@H]4/C=C\CCCCC[C@H](NC(=O)OC4CCCC4)C(=O)N2C1)O3` [Example 155, cyclopentyl [(2R,6S,12Z,13aS,14aR,16aS)-9′-methoxy-14a-{[(1-methylcyclopropyl)sulfonyl]carbamoyl}-5,16-dioxo-5′-(propan-2-yl)-1,1′,2′,5,6,7,8,9,10,11,13a,14,14a,15,16,16a-hexadecahydrospiro[cyclopropa[e]pyrrolo[1,2-a][1,4]diazacyclopentadecine-2,3′-pyrano[2,3-c]quinolin]-6-yl]carbamate], the IC50 in test [1] (setting [3]) was determined as 0.015 nM. In test [2] (setting [4]), the EC50 amounted to 1.17 nM.

The compound `Cc1nc2ccc(OCC(F)(F)F)cc2c2c1O[C@]1(CC2)C[C@H]2C(=O)N[C@]3(C(=O)NS(=O)(=O)C4(C)CC4)C[C@H]3/C=C\CCCCC[C@H](NC(=O)OC(C)(C)C(F)(F)F)C(=O)N2C1` [Example 301, 1,1,1-trifluoro-2-methylpropan-2-yl [(2R,6S,12Z,13aS,14aR,16aS)-5′-methyl-14a-{[(1-methylcyclopropyl)sulfonyl]carbamoyl}-5,16-dioxo-9′-(2,2,2-trifluoroethoxy)-1,1′,2′,5,6,7,8,9,10,11,13a,14,14a,15,16,16a-hexadecahydrospiro[cyclopropa[e]pyrrolo[1,2-a][1,4]diazacyclopentadecine-2,3′-pyrano[2,3-c]quinolin]-6-yl]carbamate] registered an IC50 in test [1] (setting [3]) of 0.013 nM. The EC50 in test [2] (setting [4]) is 3.46 nM.

In test [1] (setting [3]), `CC1(S(=O)(=O)NC(=O)[C@@]23C[C@H]2/C=C\CCCCC[C@H](NC(=O)OC2CCCC2)C(=O)N2C[C@@]4(CCc5c(c(C6CC6)nc6ccccc56)O4)C[C@H]2C(=O)N3)CC1` [Example 104, cyclopentyl [(2R,6S,12Z,13aS,14aR,16aS)-5′-cyclopropyl-14a-{[(1-methylcyclopropyl)sulfonyl]carbamoyl}-5,16-dioxo-1,1′,2′,5,6,7,8,9,10,11,13a,14,14a,15,16,16a-hexadecahydrospiro[cyclopropa[e]pyrrolo[1,2-a][1,4]diazacyclopentadecine-2,3′-pyrano[2,3-c]quinolin]-6-yl]carbamate] returned an IC50 of 0.013 nM. Besides, in test [2] (setting [4]), the EC50 came to 1.39 nM.

For the compound `CCCOC(=O)N[C@H]1CCCCC/C=C\[C@@H]2C[C@@]2(C(=O)NS(=O)(=O)C2(C)CC2)NC(=O)[C@@H]2C[C@]3(CCc4c(c(C(F)F)nc5ccc(OC)cc45)O3)CN2C1=O` [Example 475, propyl [(2R,6S,12Z,13aS,14aR,16aS)-5′-(difluoromethyl)-9′-methoxy-14a-{[(1-methylcyclopropyl)sulfonyl]carbamoyl}-5,16-dioxo-1,1′,2′,5,6,7,8,9,10,11,13a,14,14a,15,16,16a-hexadecahydrospiro[cyclopropa[e]pyrrolo[1,2-a][1,4]diazacyclopentadecine-2,3′-pyrano[2,3-c]quinolin]-6-yl]carbamate], the IC50 in test [1] (IC50 [gt-1b], NS3/4A protease TRF assay, genotype 1b enzyme 0.2 nM, K+ salt) stood at 0.005 nM. Also, the EC50 in test [2] (Hepatitis C virus, HCV replicon, genotype 1b, K+ salt) worked out at 2.39 nM.

`Cc1nc2ccccc2c2c1O[C@]1(CC2)C[C@H]2C(=O)N[C@]3(C(=O)NS(=O)(=O)C4(C)CC4)C[C@H]3/C=C\CCCCC[C@H](NC(=O)OC(CN(C)S(C)(=O)=O)C(C)(C)C)C(=O)N2C1` (single isomer, unassigned) [Example 262]: in test [1] (setting [3]), the IC50 came out at 0.037 nM. Besides, in test [2] (genotype 1b replicon), the EC50 was 38.9 nM.

Take `COc1ccc2c3c(c(C4CC4)nc2c1)O[C@]1(CC3)C[C@H]2C(=O)N[C@]3(C(=O)NS(=O)(=O)C4(C)CC4)C[C@H]3/C=C\CCCCC[C@H](NC(=O)CC3CCCC3)C(=O)N2C1` [Example 270, (2R,6S,12Z,13aS,14aR,16aS)-6-[(cyclopentylacetyl)amino]-5′-cyclopropyl-8′-methoxy-N-[(1-methylcyclopropyl)sulfonyl]-5,16-dioxo-1,1′,2′,6,7,8,9,10,11,13a,14,15,16,16a-tetradecahydrospiro[cyclopropa[e]pyrrolo[1,2-a][1,4]diazacyclopentadecine-2,3′-pyrano[2,3-c]quinoline]-14a(5H)-carboxamide]: the IC50 in test [1] (IC50 [gt-1b] (nM), NS3/4A genotype 1b, enzyme 0.2 nM, HCOOH salt) turned out to be 0.044 nM. For the same compound, the EC50 in test [2] (Hepatitis C virus, genotype 1b replicon, HCOOH salt) was found to be 24.2 nM.

Compound `Cc1nc2ccccc2c2c1O[C@]1(CC2)C[C@H]2C(=O)N[C@]3(C(=O)NS(=O)(=O)C4(C)CC4)C[C@H]3/C=C\CCCCC[C@H](Nc3nccs3)C(=O)N2C1` [Example 360, (2R,6S,12Z,13aS,14aR,16aS)-5′-methyl-N-[(1-methylcyclopropyl)sulfonyl]-5,16-dioxo-6-(1,3-thiazol-2-ylamino)-1,1′,2′,6,7,8,9,10,11,13a,14,15,16,16a-tetradecahydrospiro[cyclopropa[e]pyrrolo[1,2-a][1,4]diazacyclopentadecine-2,3′-pyrano[2,3-c]quinoline]-14a(5H)-carboxamide] returned an IC50 in test [1] (setting [7]) of 0.143 nM. Moreover, the EC50 in test [2] (setting [8]) was 140 nM.

Broadly, the IC50 is the concentration that gives 50% inhibition. As usually defined, the EC50 is the concentration needed to bring the measured effect to its halfway point.
